Assay [1] has as its system HeLa. Description: Increase in ataxia telangiectasia mutated gene expression in human HeLa cells after 24 hrs by RT-PCR relative to control. The format is functional.
In assay [2] the test system is HeLa. Description: Increase in p21CIP1 level in human HeLa cells at 100 uM by Western blotting. The format is functional, cell-based. To be noted: TDE = time-dependent effect. In general terms: In western blotting, separated proteins are transferred to a membrane and probed.
Assay [3] has as its target Cyclin-dependent kinase 4 (Homo sapiens) (UniProt P11802). Description: Inhibition of CDK4 in human HeLa cells by immunoprecipitation kinase assay. The format is cell-based.
The target in assay [4] is Cyclin-dependent kinase 2 (Homo sapiens) (UniProt P24941). Description: Inhibition of CDK2 in human HeLa cells by immunoprecipitation kinase assay. The format is cell-based.
In assay [5] the test system is HeLa. Description: Cell cycle arrest in human HeLa cells assessed as accumulation at G1 phase at 100 uM treated 12 hrs after nocodazole challenge measured after 12 hrs by flow cytometry. The format is functional. On the technique in general: In flow cytometry, cells or beads pass a laser one at a time.
The test system of assay [6] is HeLa. Description: Increase in hypophosphorylated pRb level in human HeLa cells at 100 uM by Western blotting. The assay is classed as functional, cell-based. The conditions noted are these: TDE = time-dependent effect.
The subject of assay [7] is HeLa. Description: Cell cycle arrest in human HeLa cells assessed as accumulation at G2/M phase at 100 uM treated 12 hrs after nocodazole challenge measured after 6 hrs by flow cytometry. The format is functional.
For assay [8], the system named is HeLa. Description: Cell cycle arrest in human HeLa cells assessed as accumulation at G1 phase at 100 uM treated 12 hrs after nocodazole challenge by flow cytometry. The assay is classed as functional, cell-based. To be noted: TDE = time-dependent effect.
Assay [9] concerns HeLa. Description: Cell cycle arrest in human HeLa cells assessed as accumulation at G1 phase at 50 ng/ml after 12 hrs by flow cytometry. The format is functional.
Assay [10] relates to HeLa. Description: Cell cycle arrest in human HeLa cells assessed as accumulation at G1 phase at 100 uM treated 12 hrs after nocodazole challenge measured after 24 hrs by flow cytometry. The format is functional.
The test system of assay [11] is HeLa. Description: Cell cycle arrest in human HeLa cells assessed as accumulation at G2/M phase at 100 uM treated 12 hrs after nocodazole challenge measured after 24 hrs by flow cytometry. The format is functional.
In assay [12] the test system is HeLa. Description: Decrease in cyclin D3 expression in human HeLa cells at 100 uM by Western blotting. The format is functional, cell-based. To be noted: TDE = time-dependent effect.
For assay [13], the system named is HeLa. Description: Increase in p27KIP1 level in human HeLa cells at 100 uM by Western blotting. To be noted: TDE = time-dependent effect. The format is functional, cell-based.
Assay [14] concerns HeLa. Description: Cell cycle arrest in human HeLa cells assessed as accumulation at G2/M phase at 50 ng/ml after 12 hrs by flow cytometry. The format is functional.
Assay [15] has as its system HeLa. Description: Cell cycle arrest in human HeLa cells assessed as accumulation at G2/M phase at 100 uM treated 12 hrs after nocodazole challenge measured after 12 hrs by flow cytometry. The format is functional.
Assay [16] deals with HeLa. Description: Cell cycle arrest in human HeLa cells assessed as accumulation at G1 phase at 100 uM treated 12 hrs after nocodazole challenge measured after 6 hrs by flow cytometry. The assay is classed as functional.
Assay [17] concerns the target Cellular tumor antigen p53 (Homo sapiens) (UniProt P04637). Description: Increase in p53-Ser15 phosphorylation in human HeLa cells at 100 uM by Western blotting. The assay is classed as cell-based.
Assay [18] has as its system HeLa. Description: Increase in ataxia telangiectasia mutated gene expression in human HeLa cells after 12 hrs by RT-PCR relative to control. The format is functional.
The target in assay [19] is Glycogen synthase kinase-3 beta (Homo sapiens) (UniProt P49841). Description: Inhibition of GSK3-beta in human HeLa cells by immunoprecipitation kinase assay. The format is cell-based.
Sequence of Glycogen synthase kinase-3 beta (Homo sapiens) (P49841 whole entry, looked up): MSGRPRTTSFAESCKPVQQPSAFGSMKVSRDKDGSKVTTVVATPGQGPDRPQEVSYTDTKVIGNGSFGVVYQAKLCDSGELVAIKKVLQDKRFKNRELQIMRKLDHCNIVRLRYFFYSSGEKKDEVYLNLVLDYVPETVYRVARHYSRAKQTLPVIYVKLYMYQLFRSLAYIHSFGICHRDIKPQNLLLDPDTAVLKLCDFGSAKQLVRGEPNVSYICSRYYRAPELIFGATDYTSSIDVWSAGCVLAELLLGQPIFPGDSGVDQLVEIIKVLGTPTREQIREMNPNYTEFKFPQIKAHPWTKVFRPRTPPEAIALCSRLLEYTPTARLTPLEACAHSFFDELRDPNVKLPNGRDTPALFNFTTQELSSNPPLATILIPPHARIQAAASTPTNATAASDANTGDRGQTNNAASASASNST

We go through one compound from ChEMBL document CHEMBL1141027, “HY251, a novel cell cycle inhibitor isolated from Aralia continentalis, induces G1 phase arrest via p53-dependent pathway in HeLa cells” (2009).

The source made the active and inactive calls. The rule behind the calls is not given here.

Sequence of Cyclin-dependent kinase 4 (Homo sapiens) (P11802 whole entry): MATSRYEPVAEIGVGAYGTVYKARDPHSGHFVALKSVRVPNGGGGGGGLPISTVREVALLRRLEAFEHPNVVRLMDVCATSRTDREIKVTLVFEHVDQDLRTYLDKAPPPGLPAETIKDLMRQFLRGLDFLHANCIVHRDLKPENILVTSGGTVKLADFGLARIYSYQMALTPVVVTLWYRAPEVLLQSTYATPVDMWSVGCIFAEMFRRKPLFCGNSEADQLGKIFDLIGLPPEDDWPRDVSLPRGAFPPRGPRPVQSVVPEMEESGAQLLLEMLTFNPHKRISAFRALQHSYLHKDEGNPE
Sequence of Cellular tumor antigen p53 (Homo sapiens) (P04637 whole entry, looked up): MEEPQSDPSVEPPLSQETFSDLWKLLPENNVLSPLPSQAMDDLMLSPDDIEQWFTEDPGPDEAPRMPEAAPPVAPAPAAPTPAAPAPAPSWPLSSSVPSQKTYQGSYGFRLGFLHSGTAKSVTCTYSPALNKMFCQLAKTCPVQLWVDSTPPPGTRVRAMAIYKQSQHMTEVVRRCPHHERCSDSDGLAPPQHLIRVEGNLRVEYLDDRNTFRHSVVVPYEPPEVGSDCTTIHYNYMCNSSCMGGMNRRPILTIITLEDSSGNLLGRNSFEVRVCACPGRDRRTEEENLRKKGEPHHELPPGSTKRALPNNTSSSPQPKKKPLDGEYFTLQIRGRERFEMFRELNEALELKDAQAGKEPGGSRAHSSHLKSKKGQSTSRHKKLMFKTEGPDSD

Regarding `C=CC1CC2(O)CC3(O)CCC=CC3C2(O)C1(O)CCC` (centres undefined), the “fold change (FC)” value in assay [1] was determined as 3.8; in assay [18] it was 3.1. In addition, the Activity result in assay [2] is “tde”; in assay [5], 48%; in assay [6], “tde”; in [7], 37%; in assay [8], “tde”; in assay [9], 4%. Also, the Activity in assay [10] is 52%; in [11], 11%; in [12] it was “tde”; in assay [13] it was “tde”; in assay [14], 68%; in assay [15], 21%. For the same compound, the Activity in assay [16] is reported as 35%. Besides, the result in [3], in assay [4] and in assay [19] was inactive. Also, in assay [17], the outcome was Active.
